According to patent publication US12180145B2, “Fused cyclooctyne compounds and their use in metal-free click reactions” (Synaffix B.V., priority 2010, dated 2024):

How the values were obtained:
[1] = prior art cyclooctynes; cited from earlier work
[2] = Reaction kinetics of cycloaddition (SPAAC) with benzyl azide, followed by proton NMR; type: physicochemical
Excerpt: In a preferred embodiment, a compound of the Formula (IIa), (IIb) and/or (IIc), or a conjugate thereof as described above, is reacted with a compound comprising a 1,3-dipole or a 1,3-(hetero)diene. For example the cycloaddition of (IIa) with benzyl azide in aqueous conditions proceeds rapidly and cleanly to the corresponding triazole adducts with excellent reaction kinetics (k=0.09-0.28 M^−1 s^−1, depending on the solvent). […] Consequently, a mixture of the exo- and endo-compounds according to the invention may be applied in some applications, avoiding the need for separation of the exo- and endo-compounds and even further simplifying the synthesis of the compounds according to the invention.
The reaction kinetics for cycloaddition with the prototypical azide benzyl azide were investigated. Thus, compound endo-IIa.2 was dissolved in a 3:1 mixture of CD3CN and D2O and mixed with benzyl azide at a final concentration of 18 mM. […] A significant solvent effect was noticed because the same cycloaddition reaction in a 1:2 mixture of CD3CN and D2O gave rate constants of 0.28 and 0.25 M^−1 s^−1 for endo-IIa.2 and exo-IIa.2, respectively.

[3] = 3:1 mixture of CD3CN and D2O, final concentration 18 mM

Structure (SMILES)	reaction rate constant k of cycloaddition with azide [1] [M⁻¹ s⁻¹]	second-order rate constant of cycloaddition with benzyl azide ([2]; 1:2 mixture of CD3CN and D2O) [M⁻¹ s⁻¹]	second-order rate constant of cycloaddition with benzyl azide [2, 3] [M⁻¹ s⁻¹]
OC1Cc2ccccc2C#Cc2ccccc21 (stereo not drawn) [DIBO]	0.12		
O=C(O)CC1CCCCC#CC1(F)F (stereo not drawn) [DIFO3]	≤ 0.076		
OC[C@H]1[C@H]2CCC#CCC[C@@H]12 [endo-IIa.2, endo-9-(hydroxymethyl)bicyclo[6.1.0]non-4-yne]		0.28	0.12
OCC1C2CCC#CCCC12 (stereo not drawn) [exo-IIa.2, 9-(hydroxymethyl)bicyclo[6.1.0]non-4-yne]		0.25	0.10
